The values below come from patent US20140024582A1, “STABLE INSULIN FORMULATIONS AND METHODS OF MAKING AND USING THEREOF” (Genecopoeia, Inc., priority 2010, published 2014).

Where two headings read alike, the source gives them in different places.

What all share (type): physicochemical
A short description of data set [1]: Total degradation products of porcine insulin formulations by C18 reverse-phase HPLC. How it is done: Six test formulations were prepared at proline concentrations of 0, 1.6 M and 2.8 M with acetone concentrations at 0 and 3 mg/ml, as listed in the following table. Those test formulations were stored at room temperature in the dark. At times, aliquots were withdrawn to be analyzed on C18 reverse-phase HPLC to measure total degradation products, as summarized in the table below.

The nature of data set [2]: Visual precipitation of insulin solutions stored at room temperature in the dark. How it is done:
Insulin was dissolved in 0.10 N hydrochloric acid (5 μL per milligram of insulin) and made into a series of solutions at its concentration of 4.0 mg/ml with various additives, and the pH was adjusted to pH 7.4 using 0.05 N sodium hydroxide. Samples were kept at room temperature (25° C.) in the dark.
Zinc-free recombinant human insulin (16 mg) was dissolved in 0.10 N hydrochloric acid (70 microliters), and to this insulin was added 6.0 ml of the above proline solution. This stock solution was further made into a series of solutions at its concentration of 2.0 mg/ml with various additives at pH 7.4. Samples were kept at room temperature (25° C.) in the dark.
After six months, there were no precipitates visible at the bottom, and the solutions were all visually clear. As shown in Example 1 above, insulin without proline forms precipitates in a few days.
Repeat preparation as in Example 2 at proline concentration of 1.0 M, 1.5 M, 2.4 M and 7.0 M, without glycerol and m-cresol. All samples were stored at room temperature in the dark over six month to find no visible insulin precipitate.

Data set [3] is described as follows: Covalent insulin dimers quantified by SEC HPLC during storage. The note with it: zinc-free insulin and zinc-insulin with EDTA, Example 4. The protocol: A group of stock solutions were prepared: proline (6.25 M) in water, EDTA (0.10 M, pH 7.4), glycerol(320 mg/ml) containing m-Cresol (25 mg/ml) in water, sodium insulin(10 mg/ml) in phosphate buffer (25 mM, pH 7.4). Eight formulations were prepared using those stock solutions as in the table below.
All the eight formulations were kept at room temperature in the dark. At times, aliquots were withdrawn for HPLC analysis (Injection volume: 0.10 ml).
During the storage, covalent insulin dimers were quantified by SEC HPLC, and the results are summarized below.
Column: Protein Pak, 125 Å, Waters, WAT084601
Mobile Phase: 20% Acetonitrile, 15% acetic acid, 65% water

`CC(C)=O` [acetone]: the “Effect on total amount of degradation side products” value in data set [1] (porcine insulin, period of 8 weeks, Example 5) is on record as “further enhances the stabilizing effect of proline”.
Turning to `O=C(O)[C@@H]1CCCN1` [proline], the “Effect of proline on precipitation of monomeric insulin” value in data set [2] (proline 2.4 M, Example 2) is “ability to deter monomeric insulin from precipitation”. In addition, the “Effect on total amount of degradation side products” value in data set [1] is on record as “reduces total amount of degradation side products”. Besides, in data set [3], the “Effect on formation of high molecular weight insulin degradation side products” value is “reduces formation of high molecular weight insulin degradation side products”.
As for `N=C(N)NCCC[C@H](N)C(=O)O` [arginine], the “Effect of arginine on precipitation of monomeric insulin” value in data set [2] (arginine at 0.5 M, Example 1) is “has ability to deter monomeric insulin from precipitation”.
